The series is described as follows: method code SF-TN, from DOI: 10.1021/jm00251a007, PMID: 4151492.
Usually logP stands for a log measure of how a compound divides between an organic and an aqueous phase. The low end stands for a more hydrophilic compound, the high end for a more lipophilic compound. Regarding `CC(C)NCC(O)COc1cc(OCC(O)CNC(C)C)c2ccccc2c1` (stereo unspecified), the logP was 0.99.

Regarding `CC(C)NCC(O)COc1cccc2c(OCC(O)CNC(C)C)cccc12` (stereo unspecified), the logP stood at 0.98.

`CC(C)NCC(O)COc1ccc2ccccc2c1OCC(O)CNC(C)C` (stereo unspecified) had a logP of 1.07.

`CC(C)NCC(O)COc1ccc(OCC(O)CNC(C)C)cc1` (stereo unspecified) displayed a logP of 0.67.

On to `CC(C)NCC(O)COc1cccc2cccc(OCC(O)CNC(C)C)c12` (stereo unspecified), for which the logP was 1.37.

Molecule `CC(C)NCC(O)COc1ccccc1OCC(O)CNC(C)C` (stereo unspecified) came in with a lipophilicity (logP) of 0.63.

Molecule `CC(C)NCC(O)COc1ccc2c(OCC(O)CNC(C)C)cccc2c1` (stereo unspecified) showed a logP of 0.87.

`CC(C)NCC(O)COc1cccc(OCC(O)CNC(C)C)c1` (stereo unspecified) displayed a logP of 0.73.

Molecule `CC(C)NCC(O)COc1ccc(OCC(O)CNC(C)C)c2ccccc12` (stereo unspecified) displayed a logP of 0.93.

`CC(C)NCC(O)COc1ccccc1` (stereo unspecified) had a logP of 1.76.

`CC(C)NCC(O)COc1ccccc1-c1ccccc1OCC(O)CNC(C)C` (stereo unspecified) yielded a logP of 0.97.

(Values after the SangsterLogP compilation.)
